Read-outs that look alike come from different tables or passages of the source. Values belong to the molecule of their own block, whether it stands above or below them.
What was measured:
[1] = test system: endo-α-GalNAcase; assay: Effects of inhibitors (additives) on enzyme activity; assay type: biochemical, Alcaligenes sp. F-1906
Method: (§1) The activity of this enzyme can be measured with asialofetuin as a substrate. The enzyme reaction is carried out in citrate buffer, pH 4.5, at 37° C., and then stopped by adding a borate buffer, pH 9.1, to this reaction mixture. The Gal β1→3GalNAc produced is measured by the method of Reissig. One unit of enzyme activity is defined as the amount of enzyme that releases 1 μmol of Gal β1,→3GalNAc in one minute.
The enzyme was tested for the effects of various kinds of substances.

[2] = test system: endo-α-GalNAcase; assay: Substrate specificity of the enzyme; assay type: biochemical, Alcaligenes sp. F-1906
[3] = pH and temperature stability of the enzyme; assay type: physicochemical
Method: (§2) The optimum pH of the enzyme reaction is 4.5-5.0 The enzyme is stable in the pH range of 4.2-6.5. thin this pH range, the activity remains about 90% or more after the enzyme is left at 1 hour at 30° C.
(§3) The optimum temperature for the enzyme reaction is 40-45° C. The temperature at which the enzyme is stable for 10 minutes when kept in a phosphate buffer, pH 6.0, is 30° C. or less. At 40° C., about 70% of the activity remains after such treatment.

[4] = test system: asialofetuin; assay: Enzyme activity with asialofetuin as substrate (optimum pH, optimum temperature, activity of purified enzyme); assay type: biochemical
Method: as §1, §2, §3
Commercially available mucin from pig gastric mucosa was mixed with 1 N sulfuric acid and left for 1 hour at 80° C. for hydrolysis, which removed the sialic acid moiety of the mucin. The hydrolysate was added to the medium at the concentration of 1%. Five hundred milliliters of the medium was put into each of 40 flasks with a capacity of 2 liters, which were sterilized and were inoculated with 5 ml of pre-cultured Alcaligenes sp. F-1906. The flasks were cultured at 28° C. for 3 days. After the culture, the bacterial cells were removed by centrifugation, and the supernatant of the culture was obtained. Ammonium sulfate was added to this supernatant at 0-5° C. and the fractions that precipitated at the saturation of 40-80% ammonium sulfate were collected. This precipitate was dissolved in 0.01 M phosphate buffer, pH 6.0, and then dialyzed overnight against the same buffer. The dialysate was put on a DEAE-Sephadex® A-50 column (5.0×32.5 cm) equilibrated with 0.01 M phosphate buffer. After the column was washed with the same buffer containing 0.2 M NaCl, the enzyme was eluted with the same buffer containing 0.4 M NaCl. […]

[5] = additive concentration 2.5 mM, no additive = 100
[6] = additive concentration 2.4 mM, no additive = 100
[7] = additive concentration 2.0 mM, no additive = 100

Molecule: [Ca+2] [Ca]
- Relative activity [1, 5]: 109%

Molecule: [Cu+2] [Cu]
- Inhibition of the enzyme ([1]; Table 2): 26-35%
- Relative activity [1, 5]: 74%

- Inhibition of the enzyme ([1]; Table 2): approximately 30%
- Relative activity [1, 6]: 68%
Molecule: N[C@@H](CS)C(=O)O [Cysteine]

- Relative activity [1, 5]: 97%
Molecule: O=C(O)CN(CCN(CC(=O)O)CC(=O)O)CC(=O)O [Ethylenediamine-tetraacetic acid]

- Relative activity [1, 7]: 106%
Molecule: N[C@H]1C(O)O[C@H](CO)[C@H](O)[C@@H]1O (stereo partly drawn) [Galactosamine]

- Relative activity [1, 7]: 107%
Molecule: OC[C@H]1OC(O)[C@H](O)[C@@H](O)[C@H]1O (stereo partly drawn) [Galactose]

- Relative activity [1, 7]: 111%
Molecule: N[C@H]1C(O)O[C@H](CO)[C@@H](O)[C@@H]1O (stereo partly drawn) [Glucosamine]

- Relative activity [1, 7]: 109%
Molecule: OC[C@H]1OC(O)[C@H](O)[C@@H](O)[C@@H]1O (stereo partly drawn) [Glucose]

Molecule: O=C(O)CI [Iodoacetic acid]
- Effect on enzyme activity (in words) [1]: almost unaffected
- Relative activity ([1]; endo-alpha-galnacase, pH 4.5, 2400 µM): 109%

- Effect on enzyme activity (in words) ([1]; Table 2): almost unaffected
- Relative activity [1, 6]: 97%
Molecule: OCCS [Mercaptoethanol]

Molecule: [Mn+2] [Mn]
- Inhibition of the enzyme ([1]; Table 2): 26-35%
- Relative activity [1, 5]: 65%

Molecule: CCN1C(=O)C=CC1=O [N-Ethylmaleimide]
- Effect on enzyme activity (in words) ([1]; Table 2): almost unaffected
- Relative activity [1, 6]: 105%

Molecule: CC(=O)N[C@H]1[C@H]([C@H](O)[C@H](O)CO)OC(O)(C(=O)O)C[C@@H]1O (stereo partly drawn) [Sialic acid]
- Relative activity ([1]; additive concentration 1.0 mM, no additive = 100): 106%

Molecule: [Zn+2] [Zn]
- Relative activity [1, 5]: 88%

Molecule: O=C(O)c1cc[c]([Hg][Cl])cc1 [p-Chloromercuribenzoic acid]
- Effect on enzyme activity (in words) ([1]; Table 2): almost unaffected
- Relative activity [1, 6]: 99%

Molecule: asialofetuin: glycoprotein with O-glycosidic Gal β1→3GalNAc α→Ser (or Thr) sugar chains, used as substrate
- Use as substrate of the enzyme [2]: can be used as substrates

Molecule: endo-α-N-acetylgalactosaminidase [endo-α-GalNAcase]
- Activity remaining ([3]; 40° C., 10 minutes in phosphate buffer, pH 6.0): about 70%
- Temperature at which the enzyme is stable ([3]; 10 minutes in phosphate buffer, pH 6.0): ≤ 30 °C
- pH range in which the enzyme is stable ([3]; 1 hour at 30° C.): 4.2-6.5
- Activity remaining ([3]; within pH 4.2-6.5, 1 hour at 30° C.): ≥ 90%
- Optimum pH of the enzyme reaction [4]: 4.5-5.0
- Optimum temperature for the enzyme reaction [4]: 40-45 °C
- relative activity of purified enzyme ([4]; purified form, Example 1): 2.2 units/mg

Source: patent publication US4990450A, “Method of producing endo-α-N-acetylgalactosaminidase from microorganisms” (Seitetsu Kagaku Co., Ltd., priority 1987, dated 1991)
